What is called inhibition is the share of the control response that was lost under treatment. Low values mean a weak effect, high ones a strong effect. As usually defined, the Ki is the equilibrium dissociation constant of an inhibitor or competing ligand from its target. A lower Ki goes with a stronger hold on the target.

Drawing on ChEMBL document CHEMBL1821607, “N-Arylalkyl-2-azaadamantanes as cage-expanded polycarbocyclic sigma (σ) receptor ligands” (Bioorg Med Chem Lett, 2011), this text covers inhibition, Ki and Ratio Ki for four compounds.

The target in test [1] is T1, Kappa-type opioid receptor (Homo sapiens, UniProt P41145). The test is described as follows: Inhibition of kappa opioid receptor at 10 uM by NIMH PDSP.
T1 sequence (P41145 whole entry): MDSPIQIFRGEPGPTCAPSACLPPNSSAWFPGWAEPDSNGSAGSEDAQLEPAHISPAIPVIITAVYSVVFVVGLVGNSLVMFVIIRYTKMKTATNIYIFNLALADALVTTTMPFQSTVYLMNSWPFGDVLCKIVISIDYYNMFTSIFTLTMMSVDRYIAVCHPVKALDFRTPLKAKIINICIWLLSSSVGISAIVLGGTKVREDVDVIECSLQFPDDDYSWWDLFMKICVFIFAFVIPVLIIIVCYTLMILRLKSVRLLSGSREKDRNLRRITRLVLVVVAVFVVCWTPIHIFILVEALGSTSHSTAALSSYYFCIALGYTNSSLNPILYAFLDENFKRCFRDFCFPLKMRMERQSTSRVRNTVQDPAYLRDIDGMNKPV
Test [2] has as its target T2, D(4) dopamine receptor (Homo sapiens) (UniProt P21917).
T2 sequence (whole entry): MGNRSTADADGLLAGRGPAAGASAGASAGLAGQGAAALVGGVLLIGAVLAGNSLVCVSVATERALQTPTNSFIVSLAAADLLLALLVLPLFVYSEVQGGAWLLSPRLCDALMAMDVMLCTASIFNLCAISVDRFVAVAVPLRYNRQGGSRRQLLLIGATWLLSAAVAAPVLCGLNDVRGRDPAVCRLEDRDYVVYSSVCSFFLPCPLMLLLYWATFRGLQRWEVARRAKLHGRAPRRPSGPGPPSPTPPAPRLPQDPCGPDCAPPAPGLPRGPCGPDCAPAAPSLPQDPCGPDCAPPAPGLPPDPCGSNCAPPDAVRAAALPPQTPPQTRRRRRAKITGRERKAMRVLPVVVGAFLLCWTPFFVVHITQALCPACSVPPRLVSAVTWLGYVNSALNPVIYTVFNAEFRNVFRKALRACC
The test is described as follows: Inhibition of D4 dopamine receptor at 10 uM by NIMH PDSP.

The target of test [3] is D(1B) dopamine receptor (Homo sapiens) (UniProt P21918). The test is described as follows: Inhibition of D5 dopamine receptor at 10 uM by NIMH PDSP.
Chain of D(1B) dopamine receptor (Homo sapiens) (P21918 whole entry): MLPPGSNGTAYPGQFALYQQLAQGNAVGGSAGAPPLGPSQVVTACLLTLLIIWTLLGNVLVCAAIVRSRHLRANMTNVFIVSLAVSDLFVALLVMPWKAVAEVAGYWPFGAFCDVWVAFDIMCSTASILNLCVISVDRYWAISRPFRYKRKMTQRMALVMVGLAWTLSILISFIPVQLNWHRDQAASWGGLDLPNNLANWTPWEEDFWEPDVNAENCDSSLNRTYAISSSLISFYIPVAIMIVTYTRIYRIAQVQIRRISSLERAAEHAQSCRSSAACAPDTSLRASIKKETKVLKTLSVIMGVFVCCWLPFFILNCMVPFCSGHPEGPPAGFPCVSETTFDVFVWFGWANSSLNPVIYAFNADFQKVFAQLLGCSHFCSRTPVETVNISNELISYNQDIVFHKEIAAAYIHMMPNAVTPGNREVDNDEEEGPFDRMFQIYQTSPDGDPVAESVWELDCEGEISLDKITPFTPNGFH
In test [4] the target is T3, Muscarinic acetylcholine receptor M1 (Homo sapiens) (UniProt P11229).
T3 sequence (whole entry): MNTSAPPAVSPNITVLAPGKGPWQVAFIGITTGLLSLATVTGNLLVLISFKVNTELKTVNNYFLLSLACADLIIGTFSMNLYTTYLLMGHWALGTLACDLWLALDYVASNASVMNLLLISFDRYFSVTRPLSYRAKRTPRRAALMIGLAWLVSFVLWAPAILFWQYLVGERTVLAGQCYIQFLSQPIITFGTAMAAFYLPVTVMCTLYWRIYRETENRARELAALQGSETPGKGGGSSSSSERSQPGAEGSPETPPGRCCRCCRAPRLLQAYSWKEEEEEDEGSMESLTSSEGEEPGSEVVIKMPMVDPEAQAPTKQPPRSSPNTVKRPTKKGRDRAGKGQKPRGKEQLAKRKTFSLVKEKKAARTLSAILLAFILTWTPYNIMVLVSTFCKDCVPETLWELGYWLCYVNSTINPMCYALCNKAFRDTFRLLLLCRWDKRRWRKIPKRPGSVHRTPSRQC
In words: Inhibition of M1 muscarinic receptor at 10 uM by NIMH PDSP.

Test [5] concerns the target Muscarinic acetylcholine receptor M2 (Homo sapiens, UniProt P08172). The test is described as follows: Inhibition of M2 muscarinic receptor by NIMH PDSP.
Test [6] deals with Sodium-dependent dopamine transporter (Homo sapiens) (UniProt Q01959). The test is described as follows: Inhibition of DAT transporter at 10 uM by NIMH PDSP.
The target of test [7] is Muscarinic acetylcholine receptor M4 (Homo sapiens, UniProt P08173). The test is described as follows: Inhibition of M4 muscarinic receptor by NIMH PDSP.
Test [8] deals with D(2) dopamine receptor (Homo sapiens) (UniProt P14416). The test is described as follows: Inhibition of D2 dopamine receptor at 10 uM by NIMH PDSP.
Chain of D(2) dopamine receptor (Homo sapiens) (P14416 whole entry): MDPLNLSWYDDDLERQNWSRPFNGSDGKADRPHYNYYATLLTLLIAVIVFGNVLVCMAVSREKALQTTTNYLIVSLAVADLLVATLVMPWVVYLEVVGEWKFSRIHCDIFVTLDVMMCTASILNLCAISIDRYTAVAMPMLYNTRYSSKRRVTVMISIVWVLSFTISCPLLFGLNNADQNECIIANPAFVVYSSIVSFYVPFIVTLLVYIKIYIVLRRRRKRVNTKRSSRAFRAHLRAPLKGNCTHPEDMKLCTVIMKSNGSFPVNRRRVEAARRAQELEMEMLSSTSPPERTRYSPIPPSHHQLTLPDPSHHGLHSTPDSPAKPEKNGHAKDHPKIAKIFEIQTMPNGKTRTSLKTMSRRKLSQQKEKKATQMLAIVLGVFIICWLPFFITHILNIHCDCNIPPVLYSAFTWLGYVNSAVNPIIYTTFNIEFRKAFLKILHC
The target in test [9] is Histamine H1 receptor (Homo sapiens, UniProt P35367). The test is described as follows: Inhibition of H1 receptor by NIMH PDSP.
Chain of Histamine H1 receptor (P35367 whole entry): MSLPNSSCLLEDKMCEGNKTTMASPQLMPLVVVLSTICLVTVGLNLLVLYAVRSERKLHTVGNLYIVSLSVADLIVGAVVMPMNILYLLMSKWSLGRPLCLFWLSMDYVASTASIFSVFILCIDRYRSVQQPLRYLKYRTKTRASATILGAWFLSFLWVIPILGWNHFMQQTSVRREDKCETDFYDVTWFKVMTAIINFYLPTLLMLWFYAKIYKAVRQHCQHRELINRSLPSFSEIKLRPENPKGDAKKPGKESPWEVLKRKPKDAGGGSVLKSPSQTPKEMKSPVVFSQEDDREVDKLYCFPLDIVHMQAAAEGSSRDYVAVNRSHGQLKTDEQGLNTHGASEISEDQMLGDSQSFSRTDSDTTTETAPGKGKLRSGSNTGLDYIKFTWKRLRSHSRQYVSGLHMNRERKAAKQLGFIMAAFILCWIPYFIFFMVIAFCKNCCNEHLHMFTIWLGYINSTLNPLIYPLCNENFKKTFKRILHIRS
Test [10] concerns the target 5-hydroxytryptamine receptor 5A (Homo sapiens) (UniProt P47898). In words: Inhibition of 5-HT5A receptor at 10 uM by NIMH PDSP.
Test [11] concerns the target T4, Alpha-1A adrenergic receptor (Homo sapiens) (UniProt P35348).
T4 sequence (whole entry): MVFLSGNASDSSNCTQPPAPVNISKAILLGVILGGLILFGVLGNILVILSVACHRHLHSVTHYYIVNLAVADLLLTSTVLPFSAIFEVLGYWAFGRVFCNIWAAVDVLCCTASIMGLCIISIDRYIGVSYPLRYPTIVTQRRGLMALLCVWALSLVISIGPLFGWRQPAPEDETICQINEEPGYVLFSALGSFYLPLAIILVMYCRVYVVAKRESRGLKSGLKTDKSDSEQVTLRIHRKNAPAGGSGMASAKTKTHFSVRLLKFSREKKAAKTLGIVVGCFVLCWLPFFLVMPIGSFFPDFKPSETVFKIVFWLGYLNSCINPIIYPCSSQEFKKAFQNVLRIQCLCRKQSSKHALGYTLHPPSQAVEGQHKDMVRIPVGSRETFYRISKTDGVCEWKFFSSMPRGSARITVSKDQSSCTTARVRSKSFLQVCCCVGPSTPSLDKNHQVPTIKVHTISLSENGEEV
The test is described as follows: Inhibition of alpha-1A adrenergic receptor at 10 uM by NIMH PDSP.

Test [12] can be described thus: Selectivity ratio of Ki for sigma 2 receptor in rat liver to Ki for sigma 1 receptor in guinea pig brain.
Test [13] has as its target Delta-type opioid receptor (Homo sapiens) (UniProt P41143). In words: Inhibition of delta opioid receptor at 10 uM by NIMH PDSP.
In test [14] the target is Muscarinic acetylcholine receptor M5 (Homo sapiens, UniProt P08912). The test is described as follows: Inhibition of M5 muscarinic receptor by NIMH PDSP.
For test [15], the target named is Beta-3 adrenergic receptor (Homo sapiens) (UniProt P13945). In words: Inhibition of beta-3 adrenergic receptor at 10 uM by NIMH PDSP.
Chain of Beta-3 adrenergic receptor (Homo sapiens) (P13945 whole entry, looked up): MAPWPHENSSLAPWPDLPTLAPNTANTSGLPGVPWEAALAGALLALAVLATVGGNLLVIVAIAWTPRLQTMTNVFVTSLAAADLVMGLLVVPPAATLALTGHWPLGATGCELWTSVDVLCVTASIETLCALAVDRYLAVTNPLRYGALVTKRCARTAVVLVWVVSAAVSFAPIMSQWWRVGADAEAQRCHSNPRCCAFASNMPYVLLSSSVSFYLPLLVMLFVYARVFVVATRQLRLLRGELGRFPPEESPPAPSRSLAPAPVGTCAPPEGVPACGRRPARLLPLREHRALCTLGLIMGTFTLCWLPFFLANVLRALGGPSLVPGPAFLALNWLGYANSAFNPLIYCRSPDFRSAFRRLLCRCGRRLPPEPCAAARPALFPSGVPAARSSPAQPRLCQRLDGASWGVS
Test [16] deals with T5, Sodium-dependent noradrenaline transporter (Homo sapiens, UniProt P23975). The test is described as follows: Inhibition of NET transporter by NIMH PDSP.
T5 sequence (P23975 whole entry): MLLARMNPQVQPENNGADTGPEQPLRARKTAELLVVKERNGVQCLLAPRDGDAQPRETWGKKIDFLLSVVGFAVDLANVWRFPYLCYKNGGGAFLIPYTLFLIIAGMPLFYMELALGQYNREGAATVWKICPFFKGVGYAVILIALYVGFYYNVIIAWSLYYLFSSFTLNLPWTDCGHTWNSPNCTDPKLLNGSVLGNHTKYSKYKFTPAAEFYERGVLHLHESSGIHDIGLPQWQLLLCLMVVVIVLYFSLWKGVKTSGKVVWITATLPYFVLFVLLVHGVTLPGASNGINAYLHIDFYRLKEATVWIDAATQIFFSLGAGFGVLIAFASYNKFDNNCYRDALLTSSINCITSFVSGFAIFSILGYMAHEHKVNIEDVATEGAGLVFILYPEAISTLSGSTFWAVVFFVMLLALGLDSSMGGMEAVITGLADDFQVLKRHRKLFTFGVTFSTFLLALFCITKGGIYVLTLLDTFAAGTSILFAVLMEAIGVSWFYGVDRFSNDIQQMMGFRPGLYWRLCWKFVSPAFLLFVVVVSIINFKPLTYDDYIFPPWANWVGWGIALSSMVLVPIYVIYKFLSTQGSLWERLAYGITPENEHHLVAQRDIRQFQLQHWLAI
The target in test [17] is 5-hydroxytryptamine receptor 1B (Homo sapiens) (UniProt P28222). The test is described as follows: Inhibition of 5-HT1B receptor at 10 uM by NIMH PDSP.
Chain of 5-hydroxytryptamine receptor 1B (Homo sapiens) (P28222 whole entry): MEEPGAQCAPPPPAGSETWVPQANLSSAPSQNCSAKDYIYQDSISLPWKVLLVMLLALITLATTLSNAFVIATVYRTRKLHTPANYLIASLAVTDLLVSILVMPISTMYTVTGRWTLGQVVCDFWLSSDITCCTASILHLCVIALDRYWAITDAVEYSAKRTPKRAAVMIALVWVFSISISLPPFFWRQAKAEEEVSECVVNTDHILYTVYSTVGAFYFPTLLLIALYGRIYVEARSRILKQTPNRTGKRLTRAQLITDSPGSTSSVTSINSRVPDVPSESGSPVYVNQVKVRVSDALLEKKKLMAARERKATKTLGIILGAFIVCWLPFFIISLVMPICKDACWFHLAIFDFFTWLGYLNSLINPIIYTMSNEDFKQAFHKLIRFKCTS
The target of test [18] is Muscarinic acetylcholine receptor M3 (Homo sapiens) (UniProt P20309). In words: Inhibition of M3 muscarinic receptor at 10 uM by NIMH PDSP.
Chain of Muscarinic acetylcholine receptor M3 (Homo sapiens) (P20309 whole entry, looked up): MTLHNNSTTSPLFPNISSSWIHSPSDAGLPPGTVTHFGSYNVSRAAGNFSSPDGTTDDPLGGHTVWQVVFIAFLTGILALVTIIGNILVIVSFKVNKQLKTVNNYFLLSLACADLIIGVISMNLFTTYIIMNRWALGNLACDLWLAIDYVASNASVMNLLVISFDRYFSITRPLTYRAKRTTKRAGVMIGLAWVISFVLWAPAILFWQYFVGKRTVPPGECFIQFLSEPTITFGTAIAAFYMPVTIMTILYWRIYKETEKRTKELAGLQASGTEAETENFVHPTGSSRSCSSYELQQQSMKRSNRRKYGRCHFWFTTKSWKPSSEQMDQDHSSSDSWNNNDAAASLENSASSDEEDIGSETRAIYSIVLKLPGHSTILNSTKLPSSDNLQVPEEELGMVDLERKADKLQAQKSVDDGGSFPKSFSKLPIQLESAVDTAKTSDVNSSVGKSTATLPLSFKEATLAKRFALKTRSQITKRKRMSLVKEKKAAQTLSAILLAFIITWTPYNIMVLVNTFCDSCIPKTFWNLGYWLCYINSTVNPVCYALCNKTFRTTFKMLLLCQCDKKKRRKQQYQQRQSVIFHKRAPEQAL
Test [19] has as its target Histamine H2 receptor (Homo sapiens) (UniProt P25021). In words: Inhibition of H2 receptor at 10 uM by NIMH PDSP.
Test [20] addresses Muscarinic acetylcholine receptor M5 (Homo sapiens) (UniProt P08912). In words: Inhibition of M5 muscarinic receptor at 10 uM by NIMH PDSP.
The target of test [21] is Muscarinic acetylcholine receptor M4 (Homo sapiens) (UniProt P08173). The test is described as follows: Inhibition of M4 muscarinic receptor at 10 uM by NIMH PDSP.
Test [22] has as its target T1, Kappa-type opioid receptor. The test is described as follows: Inhibition of kappa opioid receptor by NIMH PDSP.
Test [23] in a line: Selectivity ratio of Ki for sigma 1 receptor in guinea pig brain to Ki for sigma 2 receptor in rat liver.
In test [24] the target is Muscarinic acetylcholine receptor M2 (Homo sapiens) (UniProt P08172). In words: Inhibition of M2 muscarinic receptor at 10 uM by NIMH PDSP.
Test [25] deals with Alpha-2A adrenergic receptor (Homo sapiens, UniProt P08913). The test is described as follows: Inhibition of alpha-2A adrenergic receptor by NIMH PDSP.
The target of test [26] is T5, Sodium-dependent noradrenaline transporter. In words: Inhibition of NET transporter at 10 uM by NIMH PDSP.

Chain of 5-hydroxytryptamine receptor 5A (Homo sapiens) (P47898 whole entry): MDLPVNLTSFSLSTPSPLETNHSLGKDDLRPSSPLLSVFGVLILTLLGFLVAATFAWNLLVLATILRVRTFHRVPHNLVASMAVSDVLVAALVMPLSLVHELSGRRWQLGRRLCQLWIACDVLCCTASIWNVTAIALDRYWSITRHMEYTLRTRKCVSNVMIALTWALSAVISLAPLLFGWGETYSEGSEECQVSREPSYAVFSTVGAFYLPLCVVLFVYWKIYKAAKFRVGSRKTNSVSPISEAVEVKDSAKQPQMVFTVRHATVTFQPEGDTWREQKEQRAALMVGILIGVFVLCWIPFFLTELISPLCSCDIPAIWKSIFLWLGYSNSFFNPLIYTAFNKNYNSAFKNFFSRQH
Chain of Delta-type opioid receptor (Homo sapiens) (P41143 whole entry): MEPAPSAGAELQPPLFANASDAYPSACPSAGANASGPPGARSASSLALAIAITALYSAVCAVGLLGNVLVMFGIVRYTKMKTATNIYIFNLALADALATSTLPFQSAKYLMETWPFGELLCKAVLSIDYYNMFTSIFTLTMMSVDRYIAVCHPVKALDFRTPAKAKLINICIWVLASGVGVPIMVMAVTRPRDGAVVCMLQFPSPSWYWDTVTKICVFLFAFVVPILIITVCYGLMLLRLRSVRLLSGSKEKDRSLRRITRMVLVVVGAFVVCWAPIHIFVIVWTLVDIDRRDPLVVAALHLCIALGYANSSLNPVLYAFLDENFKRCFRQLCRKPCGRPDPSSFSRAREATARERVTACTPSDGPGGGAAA
Chain of Histamine H2 receptor (Homo sapiens) (P25021 whole entry): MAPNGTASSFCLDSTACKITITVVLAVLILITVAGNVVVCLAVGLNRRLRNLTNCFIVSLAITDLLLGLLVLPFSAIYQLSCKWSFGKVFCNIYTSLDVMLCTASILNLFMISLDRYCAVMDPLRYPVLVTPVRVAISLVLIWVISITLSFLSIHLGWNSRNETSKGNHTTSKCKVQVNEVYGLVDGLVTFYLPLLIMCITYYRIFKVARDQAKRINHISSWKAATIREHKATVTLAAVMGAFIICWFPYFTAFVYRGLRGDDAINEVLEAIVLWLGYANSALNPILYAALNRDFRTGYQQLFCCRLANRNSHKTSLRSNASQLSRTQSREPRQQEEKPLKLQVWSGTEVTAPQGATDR

Consider `c1ccc(CN2C3CC4CC(C3)CC2C4)cc1`, for which the inhibition in test [1], in [2], in test [3], in test [4], in [6] and in test [8] was below 50% throughout. In addition, the inhibition in [10], in test [11], in test [13], in [15], in test [17] and in test [18] was below 50% throughout. In [19], the inhibition is below 50%. Besides, the Ki in test [5] is 4.3 µM; in test [7], 1780 nM; in test [9], below 10 µM; in [14], 6.55 µM; in test [16] it was above 10 µM. In addition, the Ratio Ki in test [12] was found to be 3.3.
Take `OC12CC3CC(CC(C3)N1Cc1cccc(F)c1)C2` (racemic): the inhibition in test [2], in [3], in test [4], in test [20], in test [21] and in test [8] was below 50% throughout. Moreover, the inhibition in [10], in test [11], in [13], in test [15], in test [17] and in [18] was below 50% in each case. For the same compound, the inhibition in [24] and in test [19] was below 50% in each case. Further, the Ki in [9] is below 10 µM; in test [22] it was 1200 nM; in test [16], above 10 µM. Moreover, in test [23], the Ratio Ki came to 1.2.
`OC12CC3CC(CC(C3)N1Cc1ccccc1)C2` (racemic): the inhibition in [2], in test [3], in test [4], in test [20], in [21] and in test [8] was below 50% in each case. Further, the inhibition in [10], in test [11], in [13], in [26], in test [15] and in test [17] was below 50% in each case. Further, the inhibition in test [18], in test [24] and in [19] was below 50% in each case. Further, the Ki in test [25] is above 10 µM; in [9] it was below 10 µM; in test [22], 662 nM. In test [23], the Ratio Ki amounted to 1.4.
In the case of `Fc1cccc(CN2C3CC4CC(C3)CC2C4)c1`, the inhibition in test [1], in [2], in test [3], in test [4], in test [6] and in test [8] was below 50% in each case. In addition, the inhibition in [10], in [13], in test [15], in test [17], in [18] and in test [19] was below 50% each time. The Ki in test [5] was 3.54 µM; in [7], 1360 nM; in [9], below 10 µM; in test [14] it was 5.48 µM; in [16] it was above 10 µM. Further, in [12], the Ratio Ki is 6.
